US20080009418A1, “Selective Inhibitors” (Alchemia LTD., priority 2004, published 2008)

What was measured:
Human κ-Opioid (KOP) = target: T1, Human κ-Opioid (KOP) (Homo sapiens, UniProt P41145); experiment: Radioligand binding, human κ-opioid (KOP) membranes, filtration, [3H]-Diprenorphine; settings: compound at 10 μM, [3H]-Diprenorphine
T1 construct: purchased Perkin Elmer Biosignal
Procedure, shortened: (§1)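 Percent inhibition of radioligand binding measured on recombinant human membranes: NK1 with [125I]-Substance P, KOP with [3H]-Diprenorphine. Incubation 1 h at room temperature, then harvest onto 0.3% PEI-soaked filters, cold Tris-HCl pH 7.4 washes and scintillation counting; non-specific binding from reference ligand wells.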

Human opioid (ORL1) = target: T2, Human opioid (ORL1) (Homo sapiens, UniProt P41146); experiment: Radioligand binding, human opioid ORL1 membranes, FlashPlate, [125I]-Nociceptin; settings: compound at 10 μM, [125I]-Nociceptin
T2 construct: purchased Perkin Elmer Biosignal
Procedure, shortened: (§2)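 Cloned human receptor membranes were coated onto FlashPlate wells and incubated with radioligand and compound (added from a 0.5 mM DMSO daughter plate) for 1 hour at room temperature in the dark. Scintillation counting gave percent inhibition, with DMSO defining total and reference ligand defining non-specific binding.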

Human μ-opioid (MOP) = target: T3, Human μ-opioid (MOP) (Homo sapiens, UniProt P35372); experiment: Radioligand binding, human μ-opioid (MOP) membranes, FlashPlate, [3H]-Naloxone; settings: compound at 10 μM, [3H]-Naloxone
T3 construct: purchased Perkin Elmer Biosignal
Procedure, shortened: as §2

Mouse urotensin (mUR2) = target: T4, Mouse urotensin (mUR2) (Mus musculus, UniProt Q8VIH9); experiment: Radioligand binding, mouse urotensin mUR2 membranes, FlashPlate, [125I]-Urotensin II; settings: compound at 10 μM, [125I]-Urotensin II
T4 construct: purchased Perkin Elmer Biosignal
T4 sequence (Q8VIH9 1-385): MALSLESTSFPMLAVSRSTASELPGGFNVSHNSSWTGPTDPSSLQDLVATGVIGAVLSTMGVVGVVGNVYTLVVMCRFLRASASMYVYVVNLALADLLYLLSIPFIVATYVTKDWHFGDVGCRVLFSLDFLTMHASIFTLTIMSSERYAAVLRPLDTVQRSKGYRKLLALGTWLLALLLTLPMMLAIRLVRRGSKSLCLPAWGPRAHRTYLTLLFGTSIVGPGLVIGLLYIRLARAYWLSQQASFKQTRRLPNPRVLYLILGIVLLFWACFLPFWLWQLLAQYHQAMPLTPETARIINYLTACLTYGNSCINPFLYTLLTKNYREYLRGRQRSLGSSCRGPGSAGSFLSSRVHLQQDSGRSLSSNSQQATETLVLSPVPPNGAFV
Procedure, shortened: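 Cloned mouse urotensin (mUR2) receptor membranes from Perkin Elmer Biosignal were immobilized in FlashPlate microplates using a proprietary coating. Each well got 19.5 μl buffer, then 0.5 μl of DMSO, reference ligand, or compound. Adding 5 μl of [125I]-Urotensin II, diluted to 5× final concentration in binding buffer, started binding. Plates were sealed with TopSeal-A and incubated 1 hour at room temperature in the dark. Wells were counted for 30 seconds each on a TopCount after a 60-second delay, and percentage inhibition was calculated.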

Human neurokinin (NK1) = target: T5, Human neurokinin (NK1) (Homo sapiens, UniProt P25103); experiment: Radioligand binding, human neurokinin NK1 membranes, filtration, [125I]-Substance P; settings: compound at 10 μM, [125I]-Substance P
T5 construct: purchased Perkin Elmer Biosignal
Procedure, shortened: as §1

Human Melanocortin (MC3) = target: T6, Human Melanocortin (MC3) (Homo sapiens, UniProt P41968); experiment: Radioligand binding, human melanocortin MC3 membranes, FlashPlate, [125I]-NDP-αMSH; settings: compound at 10 μM, [125I]-NDP-αMSH
T6 construct: purchased Perkin Elmer Biosignal
Procedure, shortened: as §2

[1] = target: T7, Human melanin-concentrating hormone (MCH1) (Homo sapiens, UniProt Q99705); experiment: Radioligand binding, human melanin-concentrating hormone MCH1 membranes, FlashPlate, [125I]-S36057; settings: compound at 10 μM; for A6: inhibition of radioligand binding, human melanin-concentrating hormone (MCH1) / A6 radioligand binding, percentage inhibition: [125I]-S36057
T7 construct: purchased Perkin Elmer Biosignal
Procedure, shortened: as §2

[2] = target: T8, Human neuropeptide Y (NPY-Y1) (Homo sapiens, UniProt P25929); experiment: Radioligand binding, human neuropeptide Y NPY-Y1 membranes, FlashPlate, [125I]-PYY; settings: compound at 10 μM, [125I]-PYY
T8 construct: purchased Perkin Elmer Biosignal
T8 sequence (P25929 1-384): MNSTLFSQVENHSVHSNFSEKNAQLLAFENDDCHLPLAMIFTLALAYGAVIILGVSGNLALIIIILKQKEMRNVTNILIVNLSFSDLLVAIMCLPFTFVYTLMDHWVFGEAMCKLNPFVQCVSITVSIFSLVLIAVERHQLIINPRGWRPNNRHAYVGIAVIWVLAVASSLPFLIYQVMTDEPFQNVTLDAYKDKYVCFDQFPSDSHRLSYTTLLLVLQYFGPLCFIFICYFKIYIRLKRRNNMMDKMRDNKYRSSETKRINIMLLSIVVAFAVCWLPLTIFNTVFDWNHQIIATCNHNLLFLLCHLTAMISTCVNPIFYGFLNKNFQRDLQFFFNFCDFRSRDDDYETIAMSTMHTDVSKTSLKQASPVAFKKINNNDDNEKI
Procedure, shortened: as §2

Human melanocortin (MC5) = target: T9, Human melanocortin (MC5) (Homo sapiens, UniProt P33032); experiment: Radioligand binding, human melanocortin MC5 membranes, FlashPlate, [125I]-NDP-αMSH; settings: compound at 10 μM, [125I]-NDP-αMSH
T9 construct: purchased Perkin Elmer Biosignal
Procedure, shortened: as §2

Human Melanocortin (MC4) = target: T10, Human Melanocortin (MC4) (Homo sapiens, UniProt P32245); experiment: Radioligand binding, human melanocortin MC4 membranes, FlashPlate, [125I]-NDP-αMSH; settings: compound at 10 μM, [125I]-NDP-αMSH
T10 construct: purchased Perkin Elmer Biosignal
Procedure, shortened: as §2

Human δ-opioid (DOP) = target: T11, Human δ-opioid (DOP) (Homo sapiens, UniProt P41143); experiment: Radioligand binding, human δ-opioid (DOP) membranes, FlashPlate, [3H]-Bremazocine; settings: compound at 10 μM, [3H]-Bremazocine
T11 construct: purchased Perkin Elmer Biosignal
Procedure, shortened: as §2

T11 sequence (P41143 whole entry): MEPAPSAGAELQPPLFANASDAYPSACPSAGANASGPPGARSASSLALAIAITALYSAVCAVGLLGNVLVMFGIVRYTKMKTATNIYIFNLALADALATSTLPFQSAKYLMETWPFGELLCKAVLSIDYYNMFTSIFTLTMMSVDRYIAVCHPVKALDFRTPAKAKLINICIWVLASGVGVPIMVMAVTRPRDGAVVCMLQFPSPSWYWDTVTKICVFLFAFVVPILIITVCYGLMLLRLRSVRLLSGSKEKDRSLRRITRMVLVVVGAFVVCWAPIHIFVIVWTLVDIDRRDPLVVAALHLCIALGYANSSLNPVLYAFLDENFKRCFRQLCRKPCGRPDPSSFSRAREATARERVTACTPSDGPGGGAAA
T9 sequence (P33032 whole entry): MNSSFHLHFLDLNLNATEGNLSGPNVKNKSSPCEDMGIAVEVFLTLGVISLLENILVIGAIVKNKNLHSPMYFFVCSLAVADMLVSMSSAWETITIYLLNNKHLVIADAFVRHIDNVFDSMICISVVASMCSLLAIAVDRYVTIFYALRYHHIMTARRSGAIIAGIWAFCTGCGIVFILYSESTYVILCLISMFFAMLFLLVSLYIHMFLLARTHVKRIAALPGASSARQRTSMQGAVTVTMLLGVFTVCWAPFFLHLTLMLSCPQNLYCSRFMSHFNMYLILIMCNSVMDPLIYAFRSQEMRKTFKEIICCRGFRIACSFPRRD
T5 sequence (P25103 whole entry): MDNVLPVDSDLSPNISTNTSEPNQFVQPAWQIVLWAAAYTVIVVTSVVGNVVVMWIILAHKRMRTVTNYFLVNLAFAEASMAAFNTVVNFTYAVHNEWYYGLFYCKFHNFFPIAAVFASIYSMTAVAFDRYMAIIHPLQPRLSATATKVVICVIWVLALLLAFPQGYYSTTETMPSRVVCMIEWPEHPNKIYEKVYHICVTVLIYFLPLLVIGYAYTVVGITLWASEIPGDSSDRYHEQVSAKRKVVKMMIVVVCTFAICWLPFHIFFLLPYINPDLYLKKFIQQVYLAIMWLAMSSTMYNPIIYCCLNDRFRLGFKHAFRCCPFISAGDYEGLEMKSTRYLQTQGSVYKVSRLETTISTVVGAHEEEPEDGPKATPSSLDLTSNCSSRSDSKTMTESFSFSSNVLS
T1 sequence (P41145 whole entry): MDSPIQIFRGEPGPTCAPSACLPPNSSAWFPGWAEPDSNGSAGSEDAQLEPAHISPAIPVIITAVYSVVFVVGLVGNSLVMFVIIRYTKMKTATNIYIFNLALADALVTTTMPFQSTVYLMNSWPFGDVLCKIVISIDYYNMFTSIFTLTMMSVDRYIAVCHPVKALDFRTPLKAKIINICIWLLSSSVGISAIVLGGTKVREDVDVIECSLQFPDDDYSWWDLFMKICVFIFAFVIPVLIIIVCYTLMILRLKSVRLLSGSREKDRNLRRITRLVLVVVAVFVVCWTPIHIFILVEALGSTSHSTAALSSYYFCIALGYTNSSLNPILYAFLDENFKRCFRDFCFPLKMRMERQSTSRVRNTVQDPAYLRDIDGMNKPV
T10 sequence (P32245 whole entry): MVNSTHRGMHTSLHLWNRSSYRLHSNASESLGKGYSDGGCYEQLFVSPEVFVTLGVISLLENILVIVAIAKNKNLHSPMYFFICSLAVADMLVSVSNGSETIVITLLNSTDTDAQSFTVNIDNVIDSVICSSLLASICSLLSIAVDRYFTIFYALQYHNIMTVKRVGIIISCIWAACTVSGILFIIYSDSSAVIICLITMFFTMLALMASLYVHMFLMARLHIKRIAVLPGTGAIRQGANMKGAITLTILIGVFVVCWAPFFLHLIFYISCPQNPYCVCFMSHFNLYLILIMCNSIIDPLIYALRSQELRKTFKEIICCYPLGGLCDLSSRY
T2 sequence (P41146 whole entry): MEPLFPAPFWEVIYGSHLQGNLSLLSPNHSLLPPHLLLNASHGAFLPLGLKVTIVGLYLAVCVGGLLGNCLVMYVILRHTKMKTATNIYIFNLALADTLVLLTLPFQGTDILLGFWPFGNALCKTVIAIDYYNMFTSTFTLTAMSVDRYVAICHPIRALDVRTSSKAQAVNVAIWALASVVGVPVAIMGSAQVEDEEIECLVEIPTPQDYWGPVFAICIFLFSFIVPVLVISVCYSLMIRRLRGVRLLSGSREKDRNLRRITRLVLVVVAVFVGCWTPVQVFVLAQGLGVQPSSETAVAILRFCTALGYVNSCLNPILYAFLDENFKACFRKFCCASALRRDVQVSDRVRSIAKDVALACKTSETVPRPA
T3 sequence (P35372 whole entry): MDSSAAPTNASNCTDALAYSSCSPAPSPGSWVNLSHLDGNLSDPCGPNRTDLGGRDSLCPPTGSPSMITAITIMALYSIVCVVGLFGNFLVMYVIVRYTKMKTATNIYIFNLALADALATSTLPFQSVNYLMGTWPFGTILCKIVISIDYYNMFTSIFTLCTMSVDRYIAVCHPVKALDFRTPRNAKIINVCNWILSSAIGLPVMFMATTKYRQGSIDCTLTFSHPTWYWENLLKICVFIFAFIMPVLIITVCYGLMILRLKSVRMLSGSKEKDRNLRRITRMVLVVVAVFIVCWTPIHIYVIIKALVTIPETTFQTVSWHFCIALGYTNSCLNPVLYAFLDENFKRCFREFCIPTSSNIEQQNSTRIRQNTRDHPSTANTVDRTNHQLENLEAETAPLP
T7 sequence (Q99705 whole entry): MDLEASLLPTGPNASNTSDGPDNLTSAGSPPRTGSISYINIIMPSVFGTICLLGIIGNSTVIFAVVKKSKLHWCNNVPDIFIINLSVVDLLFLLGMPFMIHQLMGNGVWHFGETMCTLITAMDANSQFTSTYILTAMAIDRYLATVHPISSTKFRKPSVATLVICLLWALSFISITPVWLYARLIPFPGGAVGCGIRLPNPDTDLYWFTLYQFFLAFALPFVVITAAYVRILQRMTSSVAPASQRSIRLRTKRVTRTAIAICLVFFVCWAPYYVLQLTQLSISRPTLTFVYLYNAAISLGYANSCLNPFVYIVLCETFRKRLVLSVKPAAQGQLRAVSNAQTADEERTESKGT
T6 sequence (P41968 whole entry): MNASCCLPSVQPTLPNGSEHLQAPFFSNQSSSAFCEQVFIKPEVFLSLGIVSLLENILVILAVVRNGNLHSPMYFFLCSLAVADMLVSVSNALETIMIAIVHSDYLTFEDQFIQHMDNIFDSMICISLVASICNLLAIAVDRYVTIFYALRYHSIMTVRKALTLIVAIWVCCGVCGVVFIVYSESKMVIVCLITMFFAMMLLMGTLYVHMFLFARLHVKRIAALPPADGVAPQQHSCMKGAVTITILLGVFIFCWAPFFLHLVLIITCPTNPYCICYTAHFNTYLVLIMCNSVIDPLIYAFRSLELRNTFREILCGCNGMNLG

N=C(N)NCCC(=O)N[C@H]1C(OCc2ccc(Cl)cc2)O[C@H](COCc2ccc3ccccc3c2)[C@@H](O)[C@@H]1OCc1ccc(Cl)cc1 (stereo partly shown) [compound 522]
A2: inhibition of radioligand binding, human κ-opioid (KOP) (Human κ-Opioid (KOP)): + (“+” indicates greater than 50% inhibition at 10 μM) | A10: inhibition of radioligand binding, human opioid (ORL1) (Human opioid (ORL1)): + (“+” indicates greater than 50% inhibition at 10 μM) | A7: inhibition of radioligand binding, human μ-opioid (MOP) (Human μ-opioid (MOP); 10 µM): − (“−” indicates less than 50% inhibition at 10 μM) | A11: inhibition of radioligand binding, mouse urotensin (mUR2) (Mouse urotensin (mUR2)): − (“−” indicates less than 50% inhibition at 10 μM) | A8: inhibition of radioligand binding, human neurokinin (NK1) (Human neurokinin (NK1)): + (“+” indicates greater than 50% inhibition at 10 μM) | A3: inhibition of radioligand binding, human melanocortin (MC3) (Human Melanocortin (MC3)): + (“+” indicates greater than 50% inhibition at 10 μM) | A6: inhibition of radioligand binding, human melanin-concentrating hormone (MCH1) [1]: + (“+” indicates greater than 50% inhibition at 10 μM) | A9: inhibition of radioligand binding, human neuropeptide Y (NPY-Y1) ([2]; 10 µM): + (“+” indicates greater than 50% inhibition at 10 μM) | A5: inhibition of radioligand binding, human melanocortin (MC5) (Human melanocortin (MC5)): + (“+” indicates greater than 50% inhibition at 10 μM) | A4: inhibition of radioligand binding, human melanocortin (MC4) (Human Melanocortin (MC4)): + (“+” indicates greater than 50% inhibition at 10 μM) | A1: inhibition of radioligand binding, human δ-opioid (DOP) (Human δ-opioid (DOP)): − (“−” indicates less than 50% inhibition at 10 μM)

CO[C@H]1[C@H](O)[C@@H](COCc2ccc(-c3ccccc3)cc2)OC(OCc2cccc(O)c2)[C@@H]1NC(=O)CNC(=N)N (stereo partly shown) [compound 162]
A2 radioligand binding, percentage inhibition (Human κ-Opioid (KOP)): − (“−” indicates less than 50% inhibition at 10 μM) | A10 radioligand binding, percentage inhibition (Human opioid (ORL1)): − (“−” indicates less than 50% inhibition at 10 μM) | A7 radioligand binding, percentage inhibition (Human μ-opioid (MOP)): − (“−” indicates less than 50% inhibition at 10 μM) | A11 radioligand binding, percentage inhibition (Mouse urotensin (mUR2)): − (“−” indicates less than 50% inhibition at 10 μM) | A8 radioligand binding, percentage inhibition (Human neurokinin (NK1)): + (“+” indicates greater than 50% inhibition at 10 μM) | A3 radioligand binding, percentage inhibition (Human Melanocortin (MC3)): − (“−” indicates less than 50% inhibition at 10 μM) | A6 radioligand binding, percentage inhibition [1]: − (“−” indicates less than 50% inhibition at 10 μM) | A9 radioligand binding, percentage inhibition [2]: − (“−” indicates less than 50% inhibition at 10 μM) | A5 radioligand binding, percentage inhibition (Human melanocortin (MC5)): − (“−” indicates less than 50% inhibition at 10 μM) | A4 radioligand binding, percentage inhibition (Human Melanocortin (MC4)): − (“−” indicates less than 50% inhibition at 10 μM) | A1 radioligand binding, percentage inhibition (Human δ-opioid (DOP)): − (“−” indicates less than 50% inhibition at 10 μM)

N=C(N)NCC(=O)NC1C(OCc2ccc(-c3ccccc3)cc2)OC(COCc2ccccc2)C(O)C1OCc1ccc(-c2ccccc2)cc1 (stereo not shown) [compound 406]
A2: inhibition of radioligand binding (Human κ-Opioid (KOP); human KOP membranes): − (“−” indicates less than 50% inhibition at 10 μM) | A10: inhibition of radioligand binding (Human opioid (ORL1); human ORL1 membranes): + (“+” indicates greater than 50% inhibition at 10 μM) | A7: inhibition of radioligand binding (Human μ-opioid (MOP); human MOP membranes): − (“−” indicates less than 50% inhibition at 10 μM) | A11: inhibition of radioligand binding (Mouse urotensin (mUR2); mouse mUR2 membranes): − (“−” indicates less than 50% inhibition at 10 μM) | A8: inhibition of radioligand binding (Human neurokinin (NK1); human NK1 membranes): + (“+” indicates greater than 50% inhibition at 10 μM) | A3: inhibition of radioligand binding (Human Melanocortin (MC3); human MC3 membranes): + (“+” indicates greater than 50% inhibition at 10 μM) | A6: inhibition of radioligand binding ([1]; [125I]-S36057, human MCH1 membranes): − (“−” indicates less than 50% inhibition at 10 μM) | A9: inhibition of radioligand binding ([2]; human NPY-Y1 membranes): − (“−” indicates less than 50% inhibition at 10 μM) | A5: inhibition of radioligand binding (Human melanocortin (MC5); human MC5 membranes): + (“+” indicates greater than 50% inhibition at 10 μM) | A4: inhibition of radioligand binding (Human Melanocortin (MC4); human MC4 membranes): + (“+” indicates greater than 50% inhibition at 10 μM) | A1: inhibition of radioligand binding (Human δ-opioid (DOP); human DOP membranes): − (“−” indicates less than 50% inhibition at 10 μM)

CO[C@H]1[C@H](O)[C@@H](COCc2cccc(O)c2)OC(OCc2ccc(-c3ccccc3)cc2)[C@@H]1NC(=O)CCCN (stereo partly shown) [compound 148]
A2 radioligand binding, percentage inhibition (Human κ-Opioid (KOP)): − (“−” indicates less than 50% inhibition at 10 μM) | A10 radioligand binding, percentage inhibition (Human opioid (ORL1)): − (“−” indicates less than 50% inhibition at 10 μM) | A7 radioligand binding, percentage inhibition (Human μ-opioid (MOP)): − (“−” indicates less than 50% inhibition at 10 μM) | A11 radioligand binding, percentage inhibition (Mouse urotensin (mUR2)): − (“−” indicates less than 50% inhibition at 10 μM) | A8 radioligand binding, percentage inhibition (Human neurokinin (NK1)): + (“+” indicates greater than 50% inhibition at 10 μM) | A3 radioligand binding, percentage inhibition (Human Melanocortin (MC3)): − (“−” indicates less than 50% inhibition at 10 μM) | A6 radioligand binding, percentage inhibition [1]: − (“−” indicates less than 50% inhibition at 10 μM) | A9 radioligand binding, percentage inhibition [2]: − (“−” indicates less than 50% inhibition at 10 μM) | A5 radioligand binding, percentage inhibition (Human melanocortin (MC5)): − (“−” indicates less than 50% inhibition at 10 μM) | A4 radioligand binding, percentage inhibition (Human Melanocortin (MC4)): − (“−” indicates less than 50% inhibition at 10 μM) | A1 radioligand binding, percentage inhibition (Human δ-opioid (DOP)): − (“−” indicates less than 50% inhibition at 10 μM)

CSC1O[C@H](COCc2ccc3ccccc3c2)[C@@H](O)[C@@H](OCc2ccc(-c3ccccc3)cc2)[C@H]1NC(=O)CCNC(=N)N (stereo partly shown) [compound 298]
A2: inhibition of radioligand binding, human κ-opioid (KOP) (Human κ-Opioid (KOP)): − (“−” indicates less than 50% inhibition at 10 μM) | A10: inhibition of radioligand binding, human opioid (ORL1) (Human opioid (ORL1)): − (“−” indicates less than 50% inhibition at 10 μM) | A7: inhibition of radioligand binding, human μ-opioid (MOP) (Human μ-opioid (MOP)): − (“−” indicates less than 50% inhibition at 10 μM) | A11: inhibition of radioligand binding, mouse urotensin (mUR2) (Mouse urotensin (mUR2)): − (“−” indicates less than 50% inhibition at 10 μM) | A8: inhibition of radioligand binding, human neurokinin (NK1) (Human neurokinin (NK1)): + (“+” indicates greater than 50% inhibition at 10 μM) | A3: inhibition of radioligand binding, human melanocortin (MC3) (Human Melanocortin (MC3)): − (“−” indicates less than 50% inhibition at 10 μM) | A6: inhibition of radioligand binding, human melanin-concentrating hormone (MCH1) [1]: − (“−” indicates less than 50% inhibition at 10 μM) | A9: inhibition of radioligand binding, human neuropeptide Y (NPY-Y1) [2]: − (“−” indicates less than 50% inhibition at 10 μM) | A5: inhibition of radioligand binding, human melanocortin (MC5) (Human melanocortin (MC5)): + (“+” indicates greater than 50% inhibition at 10 μM) | A4: inhibition of radioligand binding, human melanocortin (MC4) (Human Melanocortin (MC4)): − (“−” indicates less than 50% inhibition at 10 μM) | A1: inhibition of radioligand binding, human δ-opioid (DOP) (Human δ-opioid (DOP)): − (“−” indicates less than 50% inhibition at 10 μM)
